Assay results published in US8163909B2, “Substituted hydroxyethyl amine compounds as beta-secretase modulators and methods of use” (Amgen Inc., priority 2007, dated 2012).
Where two headings read alike, the source gives them in different places.

Columns and labels:
CYP3A = CYP3A (Homo sapiens, UniProt P08684); conditions: CYP3A4 inhibition; for IC50: read-out: 3A4 IC50
[1] = human, microsomes, 1 μM, pH 7.4
[2] = rat, microsomes, 1 μM, pH 7.4
[3] = target: Beta Secretase enzyme (BACE) (Homo sapiens, UniProt P56817); experiment: In vitro enzymatic BACE FRET (fluorescence resonance energy transfer) assay; format: biochemical;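 further: fluorescence read after 1 h with 50 nM quenched peptide substrate spanning the BACE cleavage site, in pH 4.2 acetate buffer containing 10% DMSO and nonionic detergent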
[4] = system: Aβ40 in conditioned medium of cells stably expressing Amyloid Precursor Protein (APP); experiment: In vitro BACE cell-based assay (Aβ40 in conditioned medium, sandwich ELISA);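 further: compounds added as a dilution series, secreted peptide quantified by europium time-resolved fluorescence readout, potency fitted from percent of control versus compound concentration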
[5] = Microsomal stability assay, rat liver microsomes; conditions: rat liver microsomes;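 further: rat liver microsomes (0.25 mg/mL) with about 1 µM compound plus 1 mM NADPH, pH 7.4, 37 °C for 30 min, parent left measured by LC-MS/MS against 0 min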
[6] = Microsomal stability assay, human liver microsomes; conditions: human liver microsomes;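 further: pooled human liver microsomes at 0.25 mg/mL with 1 µM compound and NADPH at 37 °C, pH 7.4, for 30 min, unchanged parent quantified by LC-MS/MS against the 0 min sample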
CYP2D6 = CYP2D6 (Homo sapiens, UniProt P10635); experiment: CYP2D6 inhibition assay (bufuralol, pooled human liver microsomes)
Abeta peptide = experiment: In vivo inhibition of beta-secretase (reduction of Abeta peptide in brain and cerebrospinal fluid); design: species or system rat; conditions: po; rat cerebrospinal fluid, orally administered at 30 mg/kg dose, measured after 4 hours; read-out: percent reduction of abeta peptide in the cerebrospinal fluid of the rat;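 further: abeta peptide quantified by sandwich ELISA with electrochemiluminescence readout in rat brain supernatant or CSF, relative to vehicle-dosed control animals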
CYP3A4 (CYP3A) = CYP3A4 (CYP3A) (Homo sapiens, UniProt P08684); experiment: in vitro; conditions: microsomes, pH 7.4
[7] = read-out: 2D6 IC50, CYP2D6 inhibition

Sequence of CYP2D6 (P10635 whole entry): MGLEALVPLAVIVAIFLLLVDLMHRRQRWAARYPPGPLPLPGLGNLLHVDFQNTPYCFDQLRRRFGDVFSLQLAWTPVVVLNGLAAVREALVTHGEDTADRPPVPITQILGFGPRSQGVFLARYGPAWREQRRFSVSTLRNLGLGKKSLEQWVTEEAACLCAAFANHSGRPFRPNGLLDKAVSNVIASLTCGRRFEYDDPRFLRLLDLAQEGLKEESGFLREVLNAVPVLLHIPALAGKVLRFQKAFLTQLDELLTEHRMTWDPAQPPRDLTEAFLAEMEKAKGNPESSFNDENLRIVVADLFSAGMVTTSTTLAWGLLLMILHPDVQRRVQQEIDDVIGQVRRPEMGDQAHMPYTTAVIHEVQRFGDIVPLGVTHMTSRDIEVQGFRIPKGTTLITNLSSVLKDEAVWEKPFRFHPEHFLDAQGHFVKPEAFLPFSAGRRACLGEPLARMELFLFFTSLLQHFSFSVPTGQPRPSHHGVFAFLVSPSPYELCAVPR
Sequence of CYP3A (P08684 2-503): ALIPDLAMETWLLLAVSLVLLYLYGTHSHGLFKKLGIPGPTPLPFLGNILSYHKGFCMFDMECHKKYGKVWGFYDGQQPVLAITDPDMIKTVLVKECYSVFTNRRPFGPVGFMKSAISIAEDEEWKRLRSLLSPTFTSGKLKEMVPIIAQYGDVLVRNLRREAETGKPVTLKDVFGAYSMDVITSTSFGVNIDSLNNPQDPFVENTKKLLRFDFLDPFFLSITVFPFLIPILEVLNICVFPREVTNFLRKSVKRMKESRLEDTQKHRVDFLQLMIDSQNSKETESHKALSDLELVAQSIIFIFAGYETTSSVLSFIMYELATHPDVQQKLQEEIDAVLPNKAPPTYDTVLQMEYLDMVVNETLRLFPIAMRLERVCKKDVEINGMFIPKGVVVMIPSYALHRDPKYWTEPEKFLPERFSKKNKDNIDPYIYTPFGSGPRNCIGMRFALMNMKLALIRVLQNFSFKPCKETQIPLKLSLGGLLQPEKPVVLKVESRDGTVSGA
Sequence of Beta Secretase enzyme (BACE) (P56817 46-501): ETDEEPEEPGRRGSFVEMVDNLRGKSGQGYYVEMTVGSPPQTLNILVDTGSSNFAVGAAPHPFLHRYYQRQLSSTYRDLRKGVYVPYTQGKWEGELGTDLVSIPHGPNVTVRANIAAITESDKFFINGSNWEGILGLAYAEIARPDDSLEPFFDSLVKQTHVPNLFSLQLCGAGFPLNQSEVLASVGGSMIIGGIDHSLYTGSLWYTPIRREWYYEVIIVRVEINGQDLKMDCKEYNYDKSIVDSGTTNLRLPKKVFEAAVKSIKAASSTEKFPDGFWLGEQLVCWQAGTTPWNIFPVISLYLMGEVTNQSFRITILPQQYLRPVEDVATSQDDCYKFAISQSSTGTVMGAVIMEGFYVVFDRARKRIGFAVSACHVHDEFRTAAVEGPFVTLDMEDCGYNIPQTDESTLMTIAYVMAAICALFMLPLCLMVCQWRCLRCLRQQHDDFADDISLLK
Sequence of CYP3A4 (CYP3A) (P08684 2-503): as the sequence (P08684 2-503) above

For `COCC(=O)N[C@@H](Cc1cc(F)cc(F)c1)[C@H](O)CN[C@H]1CC2(CCC2)Oc2c1cc([C@H]1CC1(C)C)nc2-c1ccncc1` [compound 703], the “3A4 IC50” value (CYP3A) was 200 nM, the “HLM” value [1] was 32 µL/min/mg and the “RLM” value [2] was 118 µL/min/mg.
For `CC(=O)N[C@@H](Cc1cc(F)cc(-c2nccs2)c1)[C@H](O)CN[C@H]1CC2(CCC2)Oc2ncc(CC(C)(C)C)cc21` [Example 435, N-((2S,3R)-4-((S)-2,2-spirocyclobutyl-6-neopentyl-3,4-dihydro-2H-pyrano[2,3-b]pyridin-4-ylamino)-1-(3-fluoro-5-(thiazol-2-yl)phenyl)-3-hydroxybutan-2-yl)acetamide], the IC50 ([3]; read-out: BACE1 FRET assay (IC50)) was 6 nM, the IC50 ([4]; HEK cells, read-out: HEK cell assay (IC50)) was 39 nM and the IC50 (CYP3A) was 1400 nM. For the same compound, the RLM [5] was 197 µL/min/mg, the HLM [6] was 125 µL/min/mg and the IC50 (CYP2D6; [7]) was 0.3 µM.
With `COCC(=O)N[C@@H](Cc1cccc(-c2nccs2)c1)[C@H](O)CN[C@H]1C[C@@]2(CCOC2)Oc2ncc(CC(C)(C)C)cc21` [compound 814, N-((1S,2R)-3-(((3S,4′S)-6′-(2,2-dimethylpropyl)-3′,4,4′,5-tetrahydrospiro[furan-3,2′-pyrano[2,3-b]pyridin]-4′-yl)amino)-2-hydroxy-1-(3-(1,3-thiazol-2-yl)benzyl)propyl)-2-methoxyacetamide] the “HLM” value [1] was 40 µL/min/mg and the “RLM” value [2] was 112 µL/min/mg.
`COCC(=O)N[C@@H](Cc1ccc(F)cc1)[C@H](O)CN[C@H]1CC2(CCC2)Oc2c1cc(CC(C)(C)C)nc2-c1c[nH]cn1` [Example 529] showed an IC50 ([3]; BACE enzyme assay, read-out: BACE1 FRET assay) of 23 nM, an IC50 ([4]; Homo sapiens, HEK293, HEK cells, read-out: HEK cell assay) of 12 nM and an inhibition in vivo at 30 mg/kg (Abeta peptide) of 10 to 80%. The “HLM” value [1] was 37 µL/min/mg, the “RLM” value [2] was 40 µL/min/mg and the IC50 (CYP3A4 (CYP3A)) was 100 nM. For the same compound, the IC50 (CYP2D6; 2D6 IC50 (uM), CYP enzyme inhibition) was 0.7 µM.
For `COCC(=O)N[C@@H](Cc1cccc(-c2nccs2)c1)[C@H](O)CN[C@H]1C[C@@]2(CCOC2)Oc2ncc(CC(C)(C)C)cc21` [compound 846, N-((1S,2R)-3-(((3S,4′S)-6′-(2,2-dimethylpropyl)-3′,4,4′,5-tetrahydrospiro[furan-3,2′-pyrano[2,3-b]pyridin]-4′-yl)amino)-2-hydroxy-1-(3-(1,3-thiazol-2-yl)benzyl)propyl)-2-methoxyacetamide], the “HLM” value [1] was 82 µL/min/mg and the “RLM” value [2] was 128 µL/min/mg.
With `C#Cc1cccc(C[C@H](NC(=O)COC)[C@H](O)CN[C@H]2C[C@]3(CCOC3)Oc3ncc(CC(C)(C)C)cc32)c1` [compound 824] the “HLM” value [1] was 21 µL/min/mg and the “RLM” value [2] was 28 µL/min/mg.
Work on `CC(=O)N[C@@H](Cc1ccc(F)c(-c2cscn2)c1)[C@H](O)CN[C@H]1CC2(CCC2)Oc2ccc(CC(C)(C)C)cc21` [Example 436, N-((2S,3R)-4-((S)-2,2-spirocyclobutyl-6-neopentyl-3,4-dihydro-2H-chromen-4-ylamino)-1-(4-fluoro-3-(thiazol-4-yl)phenyl)-3-hydroxybutan-2-yl)acetamide] yielded an IC50 ([3]; BACE enzyme assay IC50, read-out: BACE1 FRET assay) of 5 nM, an IC50 ([4]; HEK cell-based assay IC50, read-out: HEK cell assay) of 24 nM and an IC50 (CYP3A) of 200 nM. The “RLM” value [5] was 78 µL/min/mg, the “HLM” value [6] was 135 µL/min/mg and the IC50 (CYP2D6; [7]) was 2.2 µM.
